In publication PMC12472621, “Excavating Precursors from Herb Pairs Polygala tenuifolia and Acori tatarinowii: Synthesis and Anticonvulsant Activity Evaluation of 3,4,5-Trimethoxycinnamic Acid (TMCA) Piperazine Amide Derivatives” (Pharmaceuticals, 2025):
Where two headings read alike, the source gives them in different places.

Tested on: maximal electroshock (MES) induced seizures
Assay: Maximal electroshock (MES) test
Type: in vivo, mice
Settings: 100 mg/kg i.p., mice; for responders at 100 mg/kg: Mus musculus, ip
Excerpt: Male Kunming mice (23–28 g) were maintained under controlled conditions with ad libitum access to standard pellet diet and water. Test compounds were formulated immediately prior to administration in normal saline containing 0.5% Tween-80. Our experiment was authorized by the Institutional Animal Care and Use Committee of Shaanxi University of Chinese Medicine (animal ethics certificate number: SUCMDL20210309027).
The MES test carried out following the method of Swinyard. A 60 Hz current (50 mA; 0.25 s duration) was delivered via corneal electrodes using a YSD-4G electro convulsion meter (Zhenghua Instruments, Huaibei, China, SN: ZH0056232). […] Test compounds were suspended in an identical vehicle. Protection was defined as abolition of tonic hindlimb extension.

[1] = 0.5 h, read-out: MES model, protected mice/total mice, 0.5 h (converted)
[2] = 1 h, read-out: MES model, protected mice/total mice, 1 h (converted)
[3] = 2 h, read-out: MES model, protected mice/total mice, 2 h (converted)
[4] = 3 h, read-out: MES model, protected mice/total mice, 3 h (converted)

Row | Compound | responders at 100 mg/kg [1] [%] | responders at 100 mg/kg [2] [%] | responders at 100 mg/kg [3] [%] | responders at 100 mg/kg [4] [%] | MES model, protected mice/total mice, 0.5 h (0.5 h) | MES model, protected mice/total mice, 1 h (1 h) | MES model, protected mice/total mice, 2 h (2 h) | MES model, protected mice/total mice, 3 h (3 h)
1 | COc1cc(/C=C/C(=O)N2CCN(C(=O)CCC(=O)O)CC2)cc(OC)c1OC [B1] | 25 | 25 | 0 | 0 | – | – | – | –
2 | C=CCc1ccc(OC(=O)CCCN2CCN(C(=O)/C=C/c3cc(OC)c(OC)c(OC)c3)CC2)c(OC)c1 [A2, 4-allyl-2-methoxyphenyl (E)-4-(4-(3-(3,4,5-trimethoxyphenyl)acryloyl)piperazin-1-yl)butanoate] | 50 | 50 | 25 | 0 | – | – | – | –
3 | COc1cc(/C=C/C(=O)N2CCN(CCCC(=O)N3CCN(C(c4ccccc4)c4ccccc4)CC3)CC2)cc(OC)c1OC [A8, (E)-1-(4-benzhydrylpiperazin-1-yl)-4-(4-(3-(3,4,5-trimethoxyphenyl)acryloyl)piperazin-1-yl)butan-1-one] | 75 | 50 | 25 | 0 | – | – | – | –
4 | COc1cc(/C=C/C(=O)N2CCN(CCCC(=O)O)CC2)cc(OC)c1OC [A1] | 25 | 25 | 0 | 0 | – | – | – | –
5 | (E)-3-(2,4,5-trimethoxyphenyl)allyl 4-oxo-4-(4-((E)-3-(3,4,5-trimethoxyphenyl)acryloyl)piperazin-1-yl)butanoate [B6] | – | – | – | – | 2/4 | 1/4 | 1/4 | 0/4
6 | COc1cc(/C=C/C(=O)N2CCN(C(=O)CCC(=O)N3CCN(c4ncccn4)CC3)CC2)cc(OC)c1OC [B16, (E)-1-(4-(pyrimidin-2-yl)piperazin-1-yl)-4-(4-(3-(3,4,5-trimethoxyphenyl)acryloyl)piperazin-1-yl)butane-1,4-dione] | 75 | 50 | 50 | 0 | – | – | – | –
7 | COc1cc(/C=C/C(=O)N2CCN(CCCC(=O)N3CCN(c4ncccn4)CC3)CC2)cc(OC)c1OC [A16, (E)-1-(4-(pyrimidin-2-yl)piperazin-1-yl)-4-(4-(3-(3,4,5-trimethoxyphenyl)acryloyl)piperazin-1-yl)butan-1-one] | 75 | 75 | 50 | 0 | – | – | – | –
8 | COc1cc(/C=C/C(=O)N2CCN(CCCC(=O)N3CCC(c4noc5cc(F)ccc45)CC3)CC2)cc(OC)c1OC [A17, (E)-1-(4-(6-fluorobenzo[d]isoxazol-3-yl)piperidin-1-yl)-4-(4-(3-(3,4,5-trimethoxyphenyl)acryloyl)piperazin-1-yl)butan-1-one] | 50 | 50 | 25 | 0 | – | – | – | –
9 | COc1cc(/C=C/C(=O)N2CCN(CCCC(=O)O[C@H]3C[C@H]4CC[C@]3(C)C4(C)C)CC2)cc(OC)c1OC (relative stereo) [A7, rel-(1R,2S,4R)-1,7,7-trimethylbicyclo [2.2.1]heptan-2-yl 4-(4-((E)-3-(3,4,5-trimethoxyphenyl)acryloyl)piperazin-1-yl)butanoate] | 75 | 50 | 25 | 0 | – | – | – | –
10 | COc1cc(/C=C/C(=O)N2CCN(C(=O)CCC(=O)O[C@H]3C[C@H]4CC[C@]3(C)C4(C)C)CC2)cc(OC)c1OC [B7, (1R,2S,4R)-1,7,7-trimethylbicyclo [2.2.1]heptan-2-yl 4-oxo-4-(4-((E)-3-(3,4,5-trimethoxyphenyl)acryloyl)piperazin-1-yl)butanoate] | 75 | 50 | 25 | 0 | – | – | – | –
11 | COc1cc(/C=C/C(=O)N2CCN(CCCC(=O)N3CCN(c4cccc(Cl)c4)CC3)CC2)cc(OC)c1OC [A13, (E)-1-(4-(3-chlorophenyl)piperazin-1-yl)-4-(4-(3-(3,4,5-trimethoxyphenyl)acryloyl)piperazin-1-yl)butan-1-one] | 25 | 25 | 0 | 0 | – | – | – | –
12 | COc1cc(/C=C/C(=O)N2CCN(CCCC(=O)N3CCN(c4ccccc4)CC3)CC2)cc(OC)c1OC [A11, (E)-1-(4-phenylpiperazin-1-yl)-4-(4-(3-(3,4,5-trimethoxyphenyl)acryloyl)piperazin-1-yl)butan-1-one] | 25 | 25 | 25 | 0 | – | – | – | –
13 | COc1cc(/C=C/C(=O)N2CCN(C(=O)CCC(=O)N3CCN(C(c4ccccc4)c4ccccc4)CC3)CC2)cc(OC)c1OC [B8, (E)-1-(4-benzhydrylpiperazin-1-yl)-4-(4-(3-(3,4,5-trimethoxyphenyl)acryloyl)piperazin-1-yl)butane-1,4-dione] | 75 | 75 | 25 | 0 | – | – | – | –
14 | COc1cc(/C=C/C(=O)N2CCN(CCCC(=O)OCC=Cc3ccccc3)CC2)cc(OC)c1OC [A6, cinnamyl 4-(4-((E)-3-(3,4,5-trimethoxyphenyl)acryloyl)piperazin-1-yl)butanoate] | 50 | 50 | 25 | 0 | – | – | – | –
15 | COc1cc(/C=C/C(=O)N2CCN(CCCC(=O)N3CCN(c4nsc5ccccc45)CC3)CC2)cc(OC)c1OC [A10, (E)-1-(4-(benzo[d]isothiazol-3-yl)piperazin-1-yl)-4-(4-(3-(3,4,5-trimethoxyphenyl)acryloyl)piperazin-1-yl)butan-1-one] | 75 | 25 | 25 | 0 | – | – | – | –
16 | COc1ccccc1N1CCN(C(=O)CCCN2CCN(C(=O)/C=C/c3cc(OC)c(OC)c(OC)c3)CC2)CC1 [A15, (E)-1-(4-(2-methoxyphenyl)piperazin-1-yl)-4-(4-(3-(3,4,5-trimethoxyphenyl)acryloyl)piperazin-1-yl)butan-1-one] | 75 | 75 | 25 | 0 | – | – | – | –
17 | C=CCc1ccccc1OC(=O)CCCN1CCN(C(=O)/C=C/c2cc(OC)c(OC)c(OC)c2)CC1 [A4, 2-allylphenyl (E)-4-(4-(3-(3,4,5-trimethoxyphenyl)acryloyl)piperazin-1-yl)butanoate] | 50 | 50 | 25 | 0 | – | – | – | –
18 | COc1cc(/C=C/C(=O)N2CCN(C(=O)CCC(=O)N3CCC(c4noc5cc(F)ccc45)CC3)CC2)cc(OC)c1OC [B17, (E)-1-(4-(6-fluorobenzo[d]isoxazol-3-yl)piperidin-1-yl)-4-(4-(3-(3,4,5-trimethoxyphenyl)acryloyl)piperazin-1-yl)butane-1,4-dione] | 50 | 50 | 25 | 0 | – | – | – | –
19 | COc1cc(/C=C/C(=O)N2CCN(C(=O)CCC(=O)N3CCN(c4nsc5ccccc45)CC3)CC2)cc(OC)c1OC [B10, (E)-1-(4-(benzo[d]isothiazol-3-yl)piperazin-1-yl)-4-(4-(3-(3,4,5-trimethoxyphenyl)acryloyl)piperazin-1-yl)butane-1,4-dione] | 75 | 75 | 25 | 0 | – | – | – | –
20 | C/C=C/c1ccc(OC(=O)CCC(=O)N2CCN(C(=O)/C=C/c3cc(OC)c(OC)c(OC)c3)CC2)c(OC)c1 [B3, 2-methoxy-4-((E)-prop-1-en-1-yl)phenyl 4-oxo-4-(4-((E)-3-(3,4,5-trimethoxyphenyl)acryloyl)piperazin-1-yl)butanoate] | 75 | 75 | 25 | 0 | – | – | – | –
21 | COc1cc(/C=C/C(=O)N2CCN(C(=O)CCC(=O)N3CCN(c4cccc(Cl)c4)CC3)CC2)cc(OC)c1OC [B13, (E)-1-(4-(3-chlorophenyl)piperazin-1-yl)-4-(4-(3-(3,4,5-trimethoxyphenyl)acryloyl)piperazin-1-yl)butane-1,4-dione] | 50 | 25 | 0 | 0 | – | – | – | –
22 | COc1cc(/C=C/C(=O)N2CCN(C(=O)CCC(=O)N3CCN(c4ccccc4)CC3)CC2)cc(OC)c1OC [B11, (E)-1-(4-phenylpiperazin-1-yl)-4-(4-(3-(3,4,5-trimethoxyphenyl)acryloyl)piperazin-1-yl)butane-1,4-dione] | 50 | 50 | 25 | 0 | – | – | – | –
23 | COc1ccccc1N1CCN(C(=O)CCC(=O)N2CCN(C(=O)/C=C/c3cc(OC)c(OC)c(OC)c3)CC2)CC1 [B15, (E)-1-(4-(2-methoxyphenyl)piperazin-1-yl)-4-(4-(3-(3,4,5-trimethoxyphenyl)acryloyl)piperazin-1-yl)butane-1,4-dione] | 75 | 75 | 25 | 0 | – | – | – | –
